# Data reported in patent publication US8012974B2, “Pyrrolopyrazinyl urea kinase inhibitors” (Roche Palo Alto LLC, priority 2008, dated 2011).
# Target: T1, JAK3: Recombinant human kinase domain (810-1124) (Homo sapiens, UniProt P52333)
# T1 construct: JAK3: Recombinant human kinase domain (810-1124); made in house
# Assay: Determination of IC50 of Janus Kinase (JAK) inhibition, JAK3, radioactive end-point assay with 33P-ATP
# Assay type: biochemical
# Settings: no additive; 0.1 nM JAK3, ATP 1.5 uM, peptide 50 uM, 20 minutes; read-out: Ic50 h-jak3-sf21-c: no additive
# Text: Determination of IC50 of Janus Kinase (JAK) Inhibition:
# Enzymes and peptide substrate used are described below: • JAK1: Recombinant human kinase domain (866-1154) from Invitrogen (Cat # PV4774) • JAK3: Recombinant human kinase domain (810-1124) made in house by Roche Palo Alto • JAK2: Recombinant human kinase domain (808-1132) from Millipore (Cat # 14-640) • Substrate: N-terminally biotinylated 14-mer peptide derived from activation loop of JAK1 with sequence of the peptide substrate: Biotin-[sequence]
# Assay conditions used are described below: • Assay Buffer: JAK Kinase Buffer: 50 mM Hepes [pH 7.2], 10 mM MgCl2, 1 mM DTT, 1 mg/ml BSA. The assay is carried out in this buffer. • Assay Format The kinase activity of all three JAK kinases is measured using a radioactive, end-point assay and with trace amounts of ^33P-ATP. The assays are carried out in 96-well polypropylene plates. Experimental Method:
# All concentrations are final in the reaction mixture and all incubations are carried at room temperature. […] 1 wash with water. • 6) Washed plates are dried in a 60° C. oven for between 1 to 2 hours. • 7) 70 ul of Microscint 20 scintillation fluid is added to each well of filter plates and after at least 30 minutes of incubation, radioactive counts are measured in a Perkinelmer microplate scintillation counter.
# T1 sequence (P52333 810-1124): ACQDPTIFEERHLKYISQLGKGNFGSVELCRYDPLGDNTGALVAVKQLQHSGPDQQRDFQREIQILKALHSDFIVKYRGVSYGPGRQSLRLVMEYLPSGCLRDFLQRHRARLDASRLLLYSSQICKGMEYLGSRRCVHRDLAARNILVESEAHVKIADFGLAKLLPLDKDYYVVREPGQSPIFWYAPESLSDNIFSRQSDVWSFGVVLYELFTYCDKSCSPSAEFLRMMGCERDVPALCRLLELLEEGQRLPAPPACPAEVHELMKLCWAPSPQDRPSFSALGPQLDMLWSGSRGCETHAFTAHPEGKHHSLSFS
row,IC50 [nM],SMILES
1,326,"O=C(NCC1CCCCC1)Nc1cnc2[nH]ccc2n1 [Compound I-6, 1-Cyclohexylmethyl-3-(5H-pyrrolo[2,3-b]pyrazin-2-yl)-urea]"
2,144,"O=C(NCCc1ccccc1)Nc1cnc2[nH]ccc2n1 [Compound I-10, 1-Phenethyl-3-(5H-pyrrolo[2,3-b]pyrazin-2-yl)-urea]"
